Results published in PubChem BioAssay (NCI).
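Step 1: Grow cells in 96-well plates. Step 2: Expose to compound for 48 hours at 5 concentrations. Step 3: Interpolate endpoints linearly; if unreached, use highest concentration. GI50: concentration for 50% inhibition of growth. TGI denotes the concentration required for complete inhibition of growth.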

Columns and labels:
Test in all cases: NCI-60 cell line screen, 48 h
M14 melanoma = tested on: M14 melanoma
OVCAR-5 ovarian = tested on: OVCAR-5 ovarian
HOP-62 NSCLC = tested on: HOP-62 NSCLC
OVCAR-8 ovarian = tested on: OVCAR-8 ovarian
HCT-116 colon = tested on: HCT-116 colon
SW-620 colon = tested on: SW-620 colon
RPMI-8226 leukemia = tested on: RPMI-8226 leukemia
HS 578T breast = tested on: HS 578T breast
HCC-2998 colon = tested on: HCC-2998 colon
HL-60(TB) leukemia = tested on: HL-60(TB) leukemia
U251 CNS = tested on: U251 CNS
NCI-H226 lung = tested on: NCI-H226 lung
UO-31 renal = tested on: UO-31 renal
CCRF-CEM leukemia = tested on: CCRF-CEM leukemia
HT29 colon = tested on: HT29 colon
NCI-H522 lung = tested on: NCI-H522 lung
NCI/ADR-RES ovarian = tested on: NCI/ADR-RES ovarian
EKVX NSCLC = tested on: EKVX NSCLC
T-47D breast = tested on: T-47D breast
MDA-MB-231 breast = tested on: MDA-MB-231 breast
CAKI-1 renal = tested on: CAKI-1 renal
IGROV1 ovarian = tested on: IGROV1 ovarian
TK-10 renal = tested on: TK-10 renal
HCT-15 colon = tested on: HCT-15 colon
MCF7 breast = tested on: MCF7 breast
HOP-92 NSCLC = tested on: HOP-92 NSCLC
KM12 colon = tested on: KM12 colon
SF-539 CNS = tested on: SF-539 CNS
SF-268 CNS = tested on: SF-268 CNS
SNB-19 CNS = tested on: SNB-19 CNS
SN12C renal = tested on: SN12C renal
MOLT-4 leukemia = tested on: MOLT-4 leukemia
A549 NSCLC = tested on: A549 NSCLC
ACHN renal = tested on: ACHN renal
SK-OV-3 ovarian = tested on: SK-OV-3 ovarian
RXF 393 renal = tested on: RXF 393 renal
SF-295 CNS = tested on: SF-295 CNS
SK-MEL-28 melanoma = tested on: SK-MEL-28 melanoma
PC-3 prostate = tested on: PC-3 prostate
MDA-MB-435 = tested on: MDA-MB-435
DU-145 prostate = tested on: DU-145 prostate
K-562 leukemia = tested on: K-562 leukemia
SK-MEL-2 melanoma = tested on: SK-MEL-2 melanoma
COLO 205 colon = tested on: COLO 205 colon
786-0 renal = tested on: 786-0 renal
LOX IMVI melanoma = tested on: LOX IMVI melanoma
UACC-257 melanoma = tested on: UACC-257 melanoma
A498 renal = tested on: A498 renal
SNB-75 CNS = tested on: SNB-75 CNS
OVCAR-4 ovarian = tested on: OVCAR-4 ovarian
UACC-62 melanoma = tested on: UACC-62 melanoma
NCI-H23 lung = tested on: NCI-H23 lung
OVCAR-3 ovarian = tested on: OVCAR-3 ovarian
NCI-H460 lung = tested on: NCI-H460 lung
SR leukemia = tested on: SR leukemia
SK-MEL-5 melanoma = tested on: SK-MEL-5 melanoma
MALME-3M melanoma = tested on: MALME-3M melanoma

COc1ccc(NC(=O)CC(=O)N2N=C(N(c3ccccc3)c3ccccc3)CC2c2ccccc2)cc1 (stereo unspecified)
TGI (M14 melanoma): > 100 µM | TGI (OVCAR-5 ovarian): > 100 µM | TGI (HOP-62 NSCLC): > 100 µM | TGI (OVCAR-8 ovarian): > 100 µM | TGI (HCT-116 colon): > 100 µM | TGI (SW-620 colon): > 100 µM | TGI (RPMI-8226 leukemia): > 100 µM | TGI (HS 578T breast): > 100 µM | TGI (HCC-2998 colon): > 100 µM | TGI (HL-60(TB) leukemia): > 100 µM | TGI (U251 CNS): > 100 µM | TGI (NCI-H226 lung): > 100 µM | TGI (UO-31 renal): > 100 µM | TGI (CCRF-CEM leukemia): > 100 µM | TGI (HT29 colon): > 100 µM | TGI (NCI-H522 lung): > 100 µM | TGI (NCI/ADR-RES ovarian): > 100 µM | TGI (EKVX NSCLC): > 100 µM | TGI (T-47D breast): > 100 µM | TGI (MDA-MB-231 breast): > 100 µM | TGI (CAKI-1 renal): > 100 µM | TGI (IGROV1 ovarian): > 100 µM | TGI (TK-10 renal): > 100 µM | TGI (HCT-15 colon): > 100 µM | TGI (MCF7 breast): > 100 µM | TGI (HOP-92 NSCLC): > 100 µM | TGI (KM12 colon): > 100 µM | TGI (SF-539 CNS): > 100 µM | TGI (SF-268 CNS): > 100 µM | TGI (SNB-19 CNS): > 100 µM | TGI (SN12C renal): > 100 µM | TGI (MOLT-4 leukemia): > 100 µM | TGI (A549 NSCLC): > 100 µM | TGI (ACHN renal): > 100 µM | TGI (SK-OV-3 ovarian): > 100 µM | TGI (RXF 393 renal): > 100 µM | TGI (SF-295 CNS): > 100 µM | TGI (SK-MEL-28 melanoma): > 100 µM | TGI (PC-3 prostate): > 100 µM | TGI (MDA-MB-435): > 100 µM | TGI (DU-145 prostate): > 100 µM | TGI (K-562 leukemia): > 100 µM | TGI (SK-MEL-2 melanoma): > 100 µM | TGI (COLO 205 colon): > 100 µM | TGI (786-0 renal): > 100 µM | TGI (LOX IMVI melanoma): > 100 µM | TGI (UACC-257 melanoma): > 100 µM | TGI (A498 renal): > 100 µM | TGI (SNB-75 CNS): > 100 µM | TGI (OVCAR-4 ovarian): > 100 µM | TGI (UACC-62 melanoma): > 100 µM | TGI (NCI-H23 lung): > 100 µM | TGI (OVCAR-3 ovarian): > 100 µM

CCCCN(CC)c1ncnc2ccc(Br)cc12
GI50 (NCI-H460 lung): 17.9 µM | TGI (NCI-H460 lung): 52.9 µM | GI50 (M14 melanoma): 18.2 µM | TGI (M14 melanoma): 34.7 µM | GI50 (OVCAR-5 ovarian): 20.5 µM | TGI (OVCAR-5 ovarian): 49.8 µM | GI50 (HOP-62 NSCLC): 16.9 µM | TGI (HOP-62 NSCLC): 34 µM | GI50 (OVCAR-8 ovarian): 14 µM | TGI (OVCAR-8 ovarian): 34.2 µM | GI50 (HCT-116 colon): 15.8 µM | TGI (HCT-116 colon): 36.2 µM | GI50 (RPMI-8226 leukemia): 3.71 µM | TGI (RPMI-8226 leukemia): 22.1 µM | GI50 (SR leukemia): 8.42 µM | TGI (SR leukemia): 34.2 µM | GI50 (HS 578T breast): 13.1 µM | TGI (HS 578T breast): 35.9 µM | GI50 (HCC-2998 colon): 20.5 µM | TGI (HCC-2998 colon): 44.2 µM | GI50 (U251 CNS): 18.2 µM | TGI (U251 CNS): 44.9 µM | GI50 (NCI-H226 lung): 16.3 µM | TGI (NCI-H226 lung): 48 µM | GI50 (UO-31 renal): 19.9 µM | TGI (UO-31 renal): 98.7 µM | GI50 (CCRF-CEM leukemia): 19 µM | TGI (CCRF-CEM leukemia): 63.8 µM | GI50 (NCI-H522 lung): 21 µM | TGI (NCI-H522 lung): > 100 µM | GI50 (NCI/ADR-RES ovarian): 15.6 µM | TGI (NCI/ADR-RES ovarian): 39.8 µM | GI50 (T-47D breast): 28.9 µM | TGI (T-47D breast): > 100 µM | GI50 (CAKI-1 renal): 8.7 µM | TGI (CAKI-1 renal): 29 µM | GI50 (IGROV1 ovarian): 16.7 µM | TGI (IGROV1 ovarian): > 100 µM | GI50 (TK-10 renal): 19.7 µM | TGI (TK-10 renal): 39.8 µM | GI50 (HCT-15 colon): 22.1 µM | TGI (HCT-15 colon): 54.7 µM | GI50 (MCF7 breast): 24.6 µM | TGI (MCF7 breast): 75.2 µM | GI50 (HOP-92 NSCLC): 9.44 µM | TGI (HOP-92 NSCLC): 33.8 µM | GI50 (KM12 colon): 15.3 µM | TGI (KM12 colon): 31.6 µM | GI50 (SF-268 CNS): 19.1 µM | TGI (SF-268 CNS): 68 µM | GI50 (SNB-19 CNS): 35.2 µM | TGI (SNB-19 CNS): > 100 µM | GI50 (SN12C renal): 18.8 µM | TGI (SN12C renal): 40.9 µM | GI50 (MOLT-4 leukemia): 2.45 µM | TGI (MOLT-4 leukemia): > 100 µM | GI50 (A549 NSCLC): 13.9 µM | TGI (A549 NSCLC): 45.6 µM | GI50 (ACHN renal): 14.5 µM | TGI (ACHN renal): 40.3 µM | GI50 (SK-OV-3 ovarian): 18.8 µM | TGI (SK-OV-3 ovarian): 49.4 µM | GI50 (RXF 393 renal): 8.45 µM | TGI (RXF 393 renal): 24.7 µM | GI50 (SF-295 CNS): 17.8 µM | TGI (SF-295 CNS): 38.3 µM | GI50 (SK-MEL-28 melanoma): 18.1 µM | TGI (SK-MEL-28 melanoma): 46.5 µM | GI50 (PC-3 prostate): 18.9 µM | TGI (PC-3 prostate): 49.6 µM | GI50 (MDA-MB-435): 16 µM | TGI (MDA-MB-435): 34.4 µM | GI50 (DU-145 prostate): 19.4 µM | TGI (DU-145 prostate): 46.8 µM | GI50 (K-562 leukemia): 10.4 µM | TGI (K-562 leukemia): 51.1 µM | GI50 (SK-MEL-5 melanoma): 16.1 µM | TGI (SK-MEL-5 melanoma): 33.4 µM | GI50 (MALME-3M melanoma): 19.1 µM | TGI (MALME-3M melanoma): 38.5 µM | GI50 (SK-MEL-2 melanoma): 29.5 µM | TGI (SK-MEL-2 melanoma): > 100 µM | GI50 (COLO 205 colon): 20.4 µM | TGI (COLO 205 colon): 63.7 µM | GI50 (786-0 renal): 18.9 µM | TGI (786-0 renal): 39.7 µM | GI50 (LOX IMVI melanoma): 17.9 µM | TGI (LOX IMVI melanoma): 38.7 µM | GI50 (A498 renal): 10.2 µM | TGI (A498 renal): 23.6 µM | GI50 (OVCAR-4 ovarian): 22.1 µM | TGI (OVCAR-4 ovarian): > 100 µM | GI50 (UACC-62 melanoma): 15.7 µM | TGI (UACC-62 melanoma): 34.7 µM | GI50 (NCI-H23 lung): 18.8 µM | TGI (NCI-H23 lung): 44.4 µM | GI50 (OVCAR-3 ovarian): 15.8 µM | TGI (OVCAR-3 ovarian): 32.5 µM
